Reference: ChEMBL document CHEMBL1671624, “Efficacy of quinoxaline-2-carboxylate 1,4-di-N-oxide derivatives in experimental tuberculosis” (Antimicrob Agents Chemother, 2008)
Converted amounts (≈) assume the structure as drawn.

What was measured:
[1] = tested on: Mus musculus; experiment: Toxicity in C57BL/6 mouse assessed as acute reactions upto 1000 mg/kg, po; type: organism-based; design: dose 1000 mg/kg, route oral; conditions: in vivo
[2] = tested on: Mycobacterium tuberculosis; experiment: Antibacterial activity against Mycobacterium tuberculosis Erdman infected in gamma interferon gene knockout C57BL/6 mouse assessed as bacterial load in lung at 300 mg/kg, po administered 18 days postinfection for 9 days measured on day 24 (Rvb= 4.47+/-0.12 log CFU); type: functional
[3] = Selectivity index, ratio of EC50 for african green monkey Vero cells to MIC for Mycobacterium tuberculosis; type: functional
[4] = tested on: Mycobacterium tuberculosis; experiment: Antibacterial activity against p-aminosalicylic acid-resistant Mycobacterium tuberculosis by microplate Alamar Blue assay; type: functional
[5] = tested on: Mycobacterium tuberculosis; experiment: Antibacterial activity against Mycobacterium tuberculosis H37Rv by microplate Alamar Blue assay; type: functional
[6] = tested on: Mycobacterium tuberculosis; experiment: Antibacterial activity against Mycobacterium tuberculosis Erdman infected in gamma interferon gene knockout C57BL/6 mouse assessed as bacterial load in spleen at 300 mg/kg, po administered 18 days postinfection for 9 days measured on day 24 (Rvb= 6.57+/-0.17 log CFU); type: functional
[7] = tested on: Mycobacterium tuberculosis; experiment: Ratio of EC50 to MIC for Mycobacterium tuberculosis; type: functional
[8] = tested on: Mycobacterium tuberculosis; experiment: Antibacterial activity against Mycobacterium tuberculosis by microplate Alamar Blue assay; type: functional
[9] = tested on: Mus musculus; experiment: Toxicity in C57BL/6 mouse assessed as acute adverse effects upto 1000 mg/kg, po; type: organism-based; design: dose 1000 mg/kg, route oral; conditions: in vivo
[10] = tested on: Mycobacterium tuberculosis; experiment: Antimicrobial activity against Mycobacterium tuberculosis Erdman by microplate Alamar Blue assay; type: functional
[11] = tested on: Mycobacterium tuberculosis; experiment: Antibacterial activity against Mycobacterium tuberculosis H37Rv under anaerobic conditions by luciferase based low oxygen recovery assay; type: functional
[12] = tested on: Mycobacterium tuberculosis; experiment: Antibacterial activity against Mycobacterium tuberculosis H37Rv under aerobic conditions; type: functional
[13] = tested on: Mycobacterium tuberculosis; experiment: Antibacterial activity against Mycobacterium tuberculosis Erdman infected in gamma interferon gene knockout C57BL/6 mouse assessed as log reduction in bacterial load in spleen at 25 mg/kg, po administered 18 days postinfection for 9 days measured on day 24 relative to control; type: functional
[14] = tested on: Mycobacterium tuberculosis; experiment: Antibacterial activity against Mycobacterium tuberculosis Erdman infected in gamma interferon gene knockout C57BL/6 mouse assessed as log reduction in bacterial load in lung at 25 mg/kg, po administered 18 days postinfection for 9 days measured on day 24 relative to control; type: functional
[15] = tested on: Mycobacterium tuberculosis; experiment: Antibacterial activity against Mycobacterium tuberculosis Erdman infected in gamma interferon gene knockout C57BL/6 mouse assessed as bacterial load in spleen at 25 mg/kg, po administered 18 days postinfection for 9 days measured on day 24 (Rvb= 6.57+/-0.17 log CFU); type: functional
[16] = tested on: Mycobacterium tuberculosis; experiment: Antibacterial activity against Mycobacterium tuberculosis Erdman infected in gamma interferon gene knockout C57BL/6 mouse assessed as bacterial load in lung at 25 mg/kg, po administered 18 days postinfection for 9 days measured on day 24 (Rvb= 4.47+/-0.12 log CFU); type: functional
[17] = tested on: Blood; experiment: Drug level in C57BL/6 mouse blood at 300 mg/kg, po; type: ADME, organism-based; design: dose 300 mg/kg, route oral; conditions: in vivo
[18] = Cmax in C57BL/6 mouse serum after 15 to 30 mins at 100 to 200 mg/kg, po; type: ADME, organism-based; design: dose 100-200 mg/kg, route oral
[19] = tested on: Mycobacterium tuberculosis; experiment: Ratio of […] for Mycobacterium tuberculosis H37Rv; type: functional
[20] = tested on: Mycobacterium tuberculosis; experiment: Antibacterial activity against Mycobacterium tuberculosis Erdman infected in gamma interferon gene knockout C57BL/6 mouse assessed as log reduction in bacterial load in lung at 100 mg/kg, po administered 18 days postinfection for 9 days measured on day 24 relative to control; type: functional
[21] = tested on: Mycobacterium tuberculosis; experiment: Antibacterial activity against Mycobacterium tuberculosis Erdman infected in gamma interferon gene knockout C57BL/6 mouse assessed as log reduction in bacterial load in lung at 300 mg/kg, po administered 18 days postinfection for 9 days measured on day 24 relative to control; type: functional
[22] = tested on: Mycobacterium tuberculosis; experiment: Antibacterial activity against Mycobacterium tuberculosis Erdman infected in gamma interferon gene knockout C57BL/6 mouse assessed as log reduction in bacterial load in spleen at 300 mg/kg, po administered 18 days postinfection for 9 days measured on day 24 relative to control; type: functional
[23] = tested on: Blood; experiment: Drug level in C57BL/6 mouse blood at 100 mg/kg, po; type: ADME, organism-based; design: dose 100 mg/kg, route oral; conditions: in vivo
[24] = Terminal half life in C57BL/6 mouse; type: ADME, organism-based; conditions: in vivo, read-out: beta t1/2 (converted)
[25] = tested on: Mus musculus; experiment: Toxicity in gamma interferon gene knockout C57BL/6 mouse infected with Mycobacterium tuberculosis Erdman assessed as with a hunched posture at 300 mg/kg, po administered 18 days postinfection for 9 days; type: organism-based; design: dose 300 mg/kg, route oral; conditions: in vivo
[26] = tested on: Blood; experiment: Drug level in C57BL/6 mouse blood at 25 mg/kg, po; type: ADME, organism-based; design: dose 25 mg/kg, route oral; conditions: in vivo
[27] = tested on: Mycobacterium tuberculosis; experiment: Antibacterial activity against Mycobacterium tuberculosis Erdman infected in gamma interferon gene knockout C57BL/6 mouse assessed as log reduction in bacterial load in spleen at 100 mg/kg, po administered 18 days postinfection for 9 days measured on day 24 relative to control; type: functional
[28] = tested on: Mus musculus; experiment: Toxicity in gamma interferon gene knockout C57BL/6 mouse infected with Mycobacterium tuberculosis Erdman assessed as lethargic at 300 mg/kg, po administered 18 days postinfection for 9 days; type: organism-based; design: dose 300 mg/kg, route oral; conditions: in vivo
[29] = tested on: Mycobacterium tuberculosis; experiment: Antibacterial activity against Mycobacterium tuberculosis H37Rv assessed as compound concentration required for 99.9% bacterial killing by microplate Alamar Blue assay; type: functional

| Compound | Activity [1] | log10cfu [2] | Selectivity Index [3] | MIC [4] | MIC [5] | log10cfu [6] | Ratio [7] | MIC [8] | Activity [9] | MIC [10] | also measured |
| --- | --- | --- | --- | --- | --- | --- | --- | --- | --- | --- | --- |
| Cc1c(C(=O)OCc2ccccc2)[n+]([O-])c2ccccc2[n+]1[O-] | Non-toxic | 7.41 | 470 | 0.2 µg/mL (≈ 0.645 µM) | 0.2 µg/mL (≈ 0.645 µM) | 6.96 | 1.5 | 0.1 µg/mL (≈ 0.322 µM) | Non-toxic | 0.1 µg/mL (≈ 0.322 µM) | – |
| COC(=O)c1c(C)[n+]([O-])c2cc(C)c(C)cc2[n+]1[O-] | – | – | >20 | 3.13 µg/mL (≈ 11.9 µM) | 3.13 µg/mL (≈ 11.9 µM) | – | 0.52 | 3.13 µg/mL (≈ 11.9 µM) | – | – | – |
| O=C(Nc1ccc([N+](=O)[O-])cc1Cl)c1cc(Cl)ccc1O [NICLOSAMIDE] | – | – | – | – | – | – | – | – | – | – | MIC [11]: 0.32 µg/mL (≈ 0.978 µM); MIC [12]: 0.28 µg/mL (≈ 0.856 µM) |
| CCOC(=O)c1c(C)[n+]([O-])c2ccc(C)cc2[n+]1[O-] | – | – | >40.06 | 3.13 µg/mL (≈ 11.9 µM) | 3.13 µg/mL (≈ 11.9 µM) | – | 1.4 | 1.56 µg/mL (≈ 5.95 µM) | – | – | – |
| Cc1c(C(=O)OCc2ccccc2)[n+]([O-])c2cc(Cl)c(Cl)cc2[n+]1[O-] | Non-toxic | 8.07 | 29 | – | 0.39 µg/mL (≈ 1.03 µM) | 7.17 | 14.35 | 0.2 µg/mL (≈ 0.527 µM) | Non-toxic | 0.1 µg/mL (≈ 0.264 µM) | – |
| O=[N+]([O-])c1cn2c(n1)OC[C@@H](OCc1ccc(OC(F)(F)F)cc1)C2 [PRETOMANID] | – | – | – | – | – | – | – | – | – | – | MIC [11]: 1.4 µg/mL (≈ 3.9 µM); MIC [12]: 0.1 µg/mL (≈ 0.278 µM) |
| CCOC(=O)c1c(C)[n+]([O-])c2cc(Cl)c(Cl)cc2[n+]1[O-] | Non-toxic | 7.64 | >20 | – | 0.2 µg/mL (≈ 0.631 µM) | 6.75 | >3.15 | 0.2 µg/mL (≈ 0.631 µM) | Non-toxic | 0.39 µg/mL (≈ 1.23 µM) | – |
| COCCOC(=O)c1c(C)[n+]([O-])c2cc(Cl)c(Cl)cc2[n+]1[O-] | Non-toxic | 8.73 | 11.54 | 0.78 µg/mL (≈ 2.25 µM) | ≤ 0.2 µg/mL | 7.18 | >4 | 0.39 µg/mL (≈ 1.12 µM) | Non-toxic | 0.39 µg/mL (≈ 1.12 µM) | – |
| CCOC(=O)c1c(C)[n+]([O-])c2cc(C)c(C)cc2[n+]1[O-] | – | – | >10 | – | ≤ 3.13 µg/mL | – | 0.46 | 6.25 µg/mL (≈ 22.6 µM) | – | – | – |
| CCOC(=O)c1c(C)[n+]([O-])c2ccccc2[n+]1[O-] | – | – | 30.13 | – | 1.56 µg/mL (≈ 6.28 µM) | – | 0.56 | 1.56 µg/mL (≈ 6.28 µM) | – | – | – |
| NNC(=O)c1ccncc1 [ISONIAZID] | – | – | – | – | – | – | – | – | – | – | log10cfu [13]: 5.04; log10cfu [14]: 3.33; log10cfu [15]: 2.2; log10cfu [16]: 4.47 |
| Cc1ccc2c(c1)[n+]([O-])c(C(=O)OCc1ccccc1)c(C)[n+]2[O-] | Non-toxic | 7.17 | 143.7 | 0.78 µg/mL (≈ 2.4 µM) | 0.39 µg/mL (≈ 1.2 µM) | 6.63 | 2.9 | 0.39 µg/mL (≈ 1.2 µM) | Non-toxic | 0.78 µg/mL (≈ 2.4 µM) | – |
| Cc1c(C(=O)OCc2ccccc2)[n+]([O-])c2cc(Cl)ccc2[n+]1[O-] | Non-toxic | 7.21 | 76.9 | – | – | 6.62 | 0.01 | 0.1 µg/mL (≈ 0.29 µM) | Non-toxic | 0.1 µg/mL (≈ 0.29 µM) | – |
| CCOC(=O)c1c(C)[n+]([O-])c2ccc(Cl)cc2[n+]1[O-] | Non-toxic | 4.55 | >50 | – | 0.2 µg/mL (≈ 0.708 µM) | 3.95 | 2.3 | 0.2 µg/mL (≈ 0.708 µM) | Non-toxic | 0.78 µg/mL (≈ 2.76 µM) | Drug uptake [17]: 9 µg/mL; Cmax [18]: 5000 ng/mL; MIC [11]: 0.42 µg/mL (≈ 1.49 µM); log10cfu [13]: 1.61; log10cfu [14]: 0.99; Ratio [19]: 4.2; log10cfu [20]: 2.03; log10cfu [21]: 5.58; log10cfu [22]: 5.51; Drug uptake [23]: 6 µg/mL; half-life [24]: 4 h; MIC [12]: 0.24 µg/mL (≈ 0.849 µM); Activity [25]: Toxic; Drug uptake [26]: 3 µg/mL; log10cfu [27]: 2.72; Activity [28]: Toxic; MBC [29]: 2.5 µg/mL (≈ 8.84 µM) |
| COC(=O)c1c(C)[n+]([O-])c2ccc(C)cc2[n+]1[O-] | – | – | >40.06 | 3.13 µg/mL (≈ 12.6 µM) | 3.13 µg/mL (≈ 12.6 µM) | – | 1.24 | 1.56 µg/mL (≈ 6.28 µM) | – | – | – |
